Measured values from publication PMC3100226 (Journal of Pain Research, 2011).

Key:
5-HT3 = 5-HT3 (Rattus norvegicus, UniProt P35563); experiment: Receptor characterization panel: 5-HT3 binding; conditions: read-out: 10 μM CR4056 (% effect), inhibition of specific binding
I1 = I1 (Bos taurus, UniProt F1N322); experiment: Receptor characterization panel: I1 binding; design: species or system bovine; conditions: read-out: 10 μM CR4056 (% effect), inhibition of specific binding
I2 = experiment: Receptor characterization panel: I2 binding; conditions: 10 μM; [3H]Idazoxan (+1 μM yohimbine); cerebral cortex/rat
CCK1 = CCK1 (Rattus norvegicus, UniProt P30551); experiment: Receptor characterization panel: CCK1 binding; conditions: read-out: 10 μM CR4056 (% effect), inhibition of specific binding
CCK2 = biological target: T1, CCK2 (Cavia porcellus, UniProt H0VZC5); experiment: Receptor characterization panel: CCK2 binding; design: species or system guinea pig; conditions: read-out: 10 μM CR4056 (% effect), inhibition of specific binding
T1 sequence (H0VZC5 1-426): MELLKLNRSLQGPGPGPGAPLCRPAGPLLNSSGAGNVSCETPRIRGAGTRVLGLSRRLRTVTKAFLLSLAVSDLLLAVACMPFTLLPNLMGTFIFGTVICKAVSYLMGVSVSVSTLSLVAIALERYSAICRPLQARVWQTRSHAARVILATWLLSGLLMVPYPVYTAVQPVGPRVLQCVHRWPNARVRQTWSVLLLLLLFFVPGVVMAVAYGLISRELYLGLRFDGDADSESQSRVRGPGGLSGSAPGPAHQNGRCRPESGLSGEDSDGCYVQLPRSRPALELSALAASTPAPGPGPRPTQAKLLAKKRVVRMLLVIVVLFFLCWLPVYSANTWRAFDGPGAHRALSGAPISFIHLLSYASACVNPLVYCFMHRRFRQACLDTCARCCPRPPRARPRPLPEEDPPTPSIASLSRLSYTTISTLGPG

[1] = biological target: Glycine (strychnine-sensitive) (Rattus norvegicus, UniProt P07727); experiment: Receptor characterization panel: glycine receptor binding; conditions: read-out: 10 μM CR4056 (% effect), inhibition of specific binding
GABA-A (muscimol site) = experiment: Receptor characterization panel: GABA-A muscimol site binding; conditions: 10 μM; [3H]Muscimol; cerebral cortex/rat
BDZ (central) = experiment: Receptor characterization panel: central BDZ binding; conditions: 10 μM; [3H]Flunitrazepam; cerebral cortex/rat
human recombinant MAO-B = biological target: T2, human recombinant MAO-B (Homo sapiens, UniProt P27338); experiment: Human recombinant MAO-B functional assay; type: biochemical
T2 sequence (P27338 1-520): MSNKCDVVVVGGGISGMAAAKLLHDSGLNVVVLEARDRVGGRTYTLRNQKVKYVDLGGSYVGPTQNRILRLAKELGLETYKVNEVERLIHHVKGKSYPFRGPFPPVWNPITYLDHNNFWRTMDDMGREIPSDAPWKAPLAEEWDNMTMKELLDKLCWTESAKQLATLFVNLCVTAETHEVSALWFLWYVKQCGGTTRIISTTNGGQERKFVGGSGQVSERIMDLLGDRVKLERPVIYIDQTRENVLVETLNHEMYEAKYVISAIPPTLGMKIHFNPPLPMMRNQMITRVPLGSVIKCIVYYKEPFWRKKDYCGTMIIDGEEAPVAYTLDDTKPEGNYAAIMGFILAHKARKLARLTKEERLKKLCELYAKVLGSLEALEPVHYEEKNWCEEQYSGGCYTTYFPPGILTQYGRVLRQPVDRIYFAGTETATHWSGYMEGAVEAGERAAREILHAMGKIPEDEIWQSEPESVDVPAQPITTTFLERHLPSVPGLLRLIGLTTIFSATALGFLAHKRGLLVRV

cycooxygenase-2 (COX2) = cycooxygenase-2 (COX2) (Homo sapiens, UniProt P35354); experiment: Enzyme characterization panel: COX2; type: biochemical; conditions: data not shown
[2] = biological target: inducible NO synthase (iNOS) (Homo sapiens, UniProt P35228); experiment: Enzyme characterization panel: iNOS; type: biochemical; conditions: data not shown
TNF-α converting enzyme = TNF-α converting enzyme (Homo sapiens, UniProt P78536); experiment: Enzyme characterization panel: TNF-α converting enzyme; type: biochemical; conditions: data not shown
carbonic anhydrase II = carbonic anhydrase II (Homo sapiens, UniProt P00918); experiment: Enzyme characterization panel: carbonic anhydrase II; type: biochemical; conditions: data not shown
PI 3-Kδ = PI 3-Kδ (Homo sapiens, UniProt O00329); experiment: Enzyme characterization panel: PI 3-Kδ; type: biochemical; conditions: data not shown
[3] = biological target: catechol-O-methyl transferase (COMT) (Homo sapiens, UniProt P21964); experiment: Enzyme characterization panel: COMT; type: biochemical; conditions: data not shown
[4] = test system: endogenous norepinephrine (NE) levels; experiment: In vivo quantification of endogenous norepinephrine tissue levels; conditions: rat
[5] = test system: CFA-induced inflammatory pain in rats; experiment: CFA-induced mechanical hyperalgesia; type: in vivo; conditions: rat; p.o., 24 hours after CFA
[6] = test system: acid-induced muscle allodynia in rats; experiment: Acid-induced muscle allodynia; type: in vivo; conditions: rat; for Mechanical threshold (grams) ± SEM, left paw (SX) / Mechanical threshold (grams) ± SEM, right paw (DX): day 6 after treatment, OS
[7] = test system: locomotor activity of rats; experiment: Open field test; type: in vivo; conditions: rat; 3–30 mg/kg oral, one hour after administration
conscious dog = experiment: Safety pharmacology, cardiovascular, conscious dog; type: in vivo; conditions: supra-pharmacological doses
MAO-A = biological target: T3, MAO-A (Rattus norvegicus, UniProt P21396); experiment: MAO-A binding
T3 sequence (P21396 1-526): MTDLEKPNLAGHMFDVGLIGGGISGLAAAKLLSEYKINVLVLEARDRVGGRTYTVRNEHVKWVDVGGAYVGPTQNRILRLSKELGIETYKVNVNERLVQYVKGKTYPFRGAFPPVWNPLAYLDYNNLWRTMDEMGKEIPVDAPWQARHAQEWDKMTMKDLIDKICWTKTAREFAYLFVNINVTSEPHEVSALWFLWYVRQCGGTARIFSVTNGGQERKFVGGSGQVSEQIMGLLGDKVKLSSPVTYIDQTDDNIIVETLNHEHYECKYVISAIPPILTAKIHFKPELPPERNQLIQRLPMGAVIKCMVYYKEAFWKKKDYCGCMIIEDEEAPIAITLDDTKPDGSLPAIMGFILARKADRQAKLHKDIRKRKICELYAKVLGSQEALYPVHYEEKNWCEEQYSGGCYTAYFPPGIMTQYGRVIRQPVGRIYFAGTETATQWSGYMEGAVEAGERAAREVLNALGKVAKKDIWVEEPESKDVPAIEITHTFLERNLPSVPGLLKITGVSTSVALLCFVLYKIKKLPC

[8] = sub-chronic (four days) oral 20 mg/kg once daily, versus vehicle

Glycine (strychnine-sensitive), sequence (P07727 29-457): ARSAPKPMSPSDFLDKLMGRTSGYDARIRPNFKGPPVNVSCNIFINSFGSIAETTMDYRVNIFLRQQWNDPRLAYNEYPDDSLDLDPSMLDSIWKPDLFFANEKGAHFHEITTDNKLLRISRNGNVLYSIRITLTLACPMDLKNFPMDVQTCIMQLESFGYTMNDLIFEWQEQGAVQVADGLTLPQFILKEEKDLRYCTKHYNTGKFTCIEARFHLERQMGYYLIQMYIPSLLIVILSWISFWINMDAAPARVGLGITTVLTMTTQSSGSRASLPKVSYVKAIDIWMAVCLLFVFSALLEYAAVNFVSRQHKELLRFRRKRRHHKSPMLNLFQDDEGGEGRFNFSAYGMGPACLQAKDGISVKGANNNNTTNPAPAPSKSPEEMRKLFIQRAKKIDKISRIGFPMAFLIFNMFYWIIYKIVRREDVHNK
Glycine (strychnine-sensitive), sequence (P20781 23-496 partner): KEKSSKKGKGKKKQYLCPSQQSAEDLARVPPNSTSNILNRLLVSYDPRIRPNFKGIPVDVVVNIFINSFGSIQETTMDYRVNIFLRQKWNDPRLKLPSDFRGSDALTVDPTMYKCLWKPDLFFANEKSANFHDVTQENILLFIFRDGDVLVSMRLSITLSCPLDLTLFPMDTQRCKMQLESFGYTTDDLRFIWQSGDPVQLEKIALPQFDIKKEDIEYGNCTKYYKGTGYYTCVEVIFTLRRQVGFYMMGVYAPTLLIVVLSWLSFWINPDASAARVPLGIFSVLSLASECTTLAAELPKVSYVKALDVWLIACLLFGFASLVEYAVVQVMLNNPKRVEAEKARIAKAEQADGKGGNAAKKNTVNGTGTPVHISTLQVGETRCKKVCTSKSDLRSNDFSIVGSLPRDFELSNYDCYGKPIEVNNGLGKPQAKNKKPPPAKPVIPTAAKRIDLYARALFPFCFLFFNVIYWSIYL
I1, sequence (F1N322 1-1508): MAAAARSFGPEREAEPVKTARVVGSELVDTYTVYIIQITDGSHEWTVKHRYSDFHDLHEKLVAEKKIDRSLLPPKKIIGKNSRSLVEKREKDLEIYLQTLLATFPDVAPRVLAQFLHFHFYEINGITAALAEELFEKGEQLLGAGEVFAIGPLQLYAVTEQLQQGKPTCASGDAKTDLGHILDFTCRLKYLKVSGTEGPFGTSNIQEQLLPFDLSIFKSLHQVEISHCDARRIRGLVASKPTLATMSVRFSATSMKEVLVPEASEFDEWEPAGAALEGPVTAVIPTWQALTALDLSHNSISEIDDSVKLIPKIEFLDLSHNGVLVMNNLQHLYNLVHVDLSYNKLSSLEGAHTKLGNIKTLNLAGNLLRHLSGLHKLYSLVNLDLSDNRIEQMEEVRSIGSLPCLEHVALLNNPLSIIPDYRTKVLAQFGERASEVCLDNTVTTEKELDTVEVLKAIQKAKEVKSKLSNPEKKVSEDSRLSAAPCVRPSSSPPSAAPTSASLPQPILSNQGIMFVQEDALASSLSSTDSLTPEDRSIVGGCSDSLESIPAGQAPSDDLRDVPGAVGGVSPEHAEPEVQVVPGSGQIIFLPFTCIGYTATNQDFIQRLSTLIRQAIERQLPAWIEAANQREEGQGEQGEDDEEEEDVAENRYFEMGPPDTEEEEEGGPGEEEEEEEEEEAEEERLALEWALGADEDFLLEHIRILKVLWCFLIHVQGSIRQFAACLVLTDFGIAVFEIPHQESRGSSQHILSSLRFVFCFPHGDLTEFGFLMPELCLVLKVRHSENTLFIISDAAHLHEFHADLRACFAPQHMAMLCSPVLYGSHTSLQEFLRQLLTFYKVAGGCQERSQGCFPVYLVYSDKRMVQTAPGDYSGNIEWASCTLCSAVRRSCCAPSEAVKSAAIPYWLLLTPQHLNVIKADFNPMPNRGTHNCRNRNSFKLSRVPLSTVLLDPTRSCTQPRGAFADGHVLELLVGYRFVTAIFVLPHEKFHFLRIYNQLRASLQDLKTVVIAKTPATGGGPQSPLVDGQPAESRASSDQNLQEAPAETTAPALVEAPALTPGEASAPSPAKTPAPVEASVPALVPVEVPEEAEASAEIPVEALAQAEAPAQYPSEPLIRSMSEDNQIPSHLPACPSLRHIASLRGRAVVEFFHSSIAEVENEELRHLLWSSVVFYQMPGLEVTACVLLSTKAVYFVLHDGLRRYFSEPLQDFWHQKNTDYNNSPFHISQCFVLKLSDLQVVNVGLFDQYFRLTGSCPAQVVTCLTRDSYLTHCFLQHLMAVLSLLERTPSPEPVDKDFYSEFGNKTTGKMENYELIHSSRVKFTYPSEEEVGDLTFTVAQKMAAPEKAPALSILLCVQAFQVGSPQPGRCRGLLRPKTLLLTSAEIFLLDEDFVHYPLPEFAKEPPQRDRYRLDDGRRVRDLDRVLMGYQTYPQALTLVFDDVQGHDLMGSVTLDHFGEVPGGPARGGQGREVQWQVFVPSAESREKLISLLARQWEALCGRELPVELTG
CCK1, sequence (P30551 whole entry): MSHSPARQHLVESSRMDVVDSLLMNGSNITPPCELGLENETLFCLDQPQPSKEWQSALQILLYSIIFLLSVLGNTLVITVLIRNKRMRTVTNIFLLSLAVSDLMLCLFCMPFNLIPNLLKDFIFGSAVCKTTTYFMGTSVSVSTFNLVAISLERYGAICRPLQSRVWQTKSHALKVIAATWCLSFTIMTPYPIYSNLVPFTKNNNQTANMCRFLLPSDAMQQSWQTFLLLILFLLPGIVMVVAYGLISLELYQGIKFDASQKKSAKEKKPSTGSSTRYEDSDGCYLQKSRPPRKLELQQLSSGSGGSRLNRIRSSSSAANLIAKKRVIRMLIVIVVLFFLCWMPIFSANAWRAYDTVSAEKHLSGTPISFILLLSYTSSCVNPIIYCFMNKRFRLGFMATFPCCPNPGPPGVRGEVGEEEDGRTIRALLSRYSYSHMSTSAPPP
PI 3-Kδ, sequence (O00329 whole entry, species assumed): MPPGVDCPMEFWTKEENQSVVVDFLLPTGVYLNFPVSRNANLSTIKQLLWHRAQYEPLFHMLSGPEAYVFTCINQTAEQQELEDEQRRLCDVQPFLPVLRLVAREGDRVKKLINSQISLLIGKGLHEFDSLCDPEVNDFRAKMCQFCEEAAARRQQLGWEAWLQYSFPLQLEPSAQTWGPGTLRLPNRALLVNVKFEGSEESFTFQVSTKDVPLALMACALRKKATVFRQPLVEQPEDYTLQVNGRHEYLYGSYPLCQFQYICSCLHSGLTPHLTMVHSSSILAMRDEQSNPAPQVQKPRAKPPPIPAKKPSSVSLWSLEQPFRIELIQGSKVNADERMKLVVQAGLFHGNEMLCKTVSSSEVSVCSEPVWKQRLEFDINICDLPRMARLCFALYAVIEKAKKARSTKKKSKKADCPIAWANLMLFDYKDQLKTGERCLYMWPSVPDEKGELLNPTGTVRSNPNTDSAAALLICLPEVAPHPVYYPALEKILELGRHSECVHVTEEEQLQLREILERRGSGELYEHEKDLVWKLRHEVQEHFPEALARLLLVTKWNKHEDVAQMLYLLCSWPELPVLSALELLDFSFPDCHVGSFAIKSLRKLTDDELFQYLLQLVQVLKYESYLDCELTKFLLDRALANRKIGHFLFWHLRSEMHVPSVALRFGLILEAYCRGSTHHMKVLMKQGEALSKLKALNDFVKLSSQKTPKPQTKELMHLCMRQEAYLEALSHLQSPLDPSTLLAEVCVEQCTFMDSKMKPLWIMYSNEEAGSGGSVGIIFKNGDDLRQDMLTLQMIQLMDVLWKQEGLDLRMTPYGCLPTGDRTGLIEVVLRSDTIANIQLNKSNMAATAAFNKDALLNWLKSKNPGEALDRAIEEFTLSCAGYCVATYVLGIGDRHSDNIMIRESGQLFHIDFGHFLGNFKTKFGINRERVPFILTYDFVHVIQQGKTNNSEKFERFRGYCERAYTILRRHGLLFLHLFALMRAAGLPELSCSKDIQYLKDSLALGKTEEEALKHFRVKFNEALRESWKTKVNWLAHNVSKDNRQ
PI 3-Kδ, sequence (P27986 whole entry partner, species assumed): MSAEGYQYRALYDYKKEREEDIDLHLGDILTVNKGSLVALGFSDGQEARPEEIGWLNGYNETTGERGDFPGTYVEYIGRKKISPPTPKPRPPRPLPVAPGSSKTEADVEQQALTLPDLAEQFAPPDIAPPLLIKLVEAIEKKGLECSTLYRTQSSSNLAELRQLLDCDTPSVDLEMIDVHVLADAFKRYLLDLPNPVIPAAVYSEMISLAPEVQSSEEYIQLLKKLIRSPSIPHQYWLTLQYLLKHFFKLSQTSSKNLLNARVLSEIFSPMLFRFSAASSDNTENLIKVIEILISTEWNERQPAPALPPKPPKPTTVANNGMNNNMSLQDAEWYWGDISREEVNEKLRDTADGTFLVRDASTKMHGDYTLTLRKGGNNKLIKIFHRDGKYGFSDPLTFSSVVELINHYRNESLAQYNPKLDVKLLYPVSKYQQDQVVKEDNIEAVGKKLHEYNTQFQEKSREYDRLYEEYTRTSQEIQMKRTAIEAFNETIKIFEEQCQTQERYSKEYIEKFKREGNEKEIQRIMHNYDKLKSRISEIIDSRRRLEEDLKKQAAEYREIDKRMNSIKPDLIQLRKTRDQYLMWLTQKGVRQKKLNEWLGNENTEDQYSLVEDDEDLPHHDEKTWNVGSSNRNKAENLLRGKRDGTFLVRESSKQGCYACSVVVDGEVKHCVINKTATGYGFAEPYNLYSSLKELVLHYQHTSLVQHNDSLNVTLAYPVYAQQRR
catechol-O-methyl transferase (COMT), sequence (P21964 whole entry, species assumed): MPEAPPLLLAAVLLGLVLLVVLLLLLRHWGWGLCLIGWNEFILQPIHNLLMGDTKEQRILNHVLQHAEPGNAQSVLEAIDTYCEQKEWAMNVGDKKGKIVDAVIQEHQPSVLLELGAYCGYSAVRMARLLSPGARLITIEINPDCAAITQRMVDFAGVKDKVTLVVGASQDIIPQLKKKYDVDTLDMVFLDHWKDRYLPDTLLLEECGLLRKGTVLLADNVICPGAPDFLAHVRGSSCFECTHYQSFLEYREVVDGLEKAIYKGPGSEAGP

c1ccc(-c2ncc3cc(-n4ccnc4)ccc3n2)cc1 [CR4056, 2-phenyl-6-(1H-imidazol-1yl)quinazoline]
inhibition at 10 µM (5-HT3): 28% | inhibition at 10 µM (I1): 23% | 10 μM CR4056 (% effect), inhibition of specific binding (I2): 66% | inhibition at 10 µM (CCK1): 21% | inhibition at 10 µM (CCK2): 16% | inhibition at 10 µM [1]: 19% | 10 μM CR4056 (% effect), inhibition of specific binding (GABA-A (muscimol site)): 26% | 10 μM CR4056 (% effect), inhibition of specific binding (BDZ (central)): 21% | IC50 (human recombinant MAO-B): > 10000 nM | Times less active as inhibitor of MAO-B activity than of MAO-A (human recombinant MAO-B; human recombinant enzymes): about 100 times | Activity in enzyme characterization panel (cycooxygenase-2 (COX2)): inactive | Activity in enzyme characterization panel [2]: inactive | Activity in enzyme characterization panel (TNF-α converting enzyme): inactive | Activity in enzyme characterization panel (carbonic anhydrase II): inactive | Activity in enzyme characterization panel (PI 3-Kδ): inactive | Activity in enzyme characterization panel [3]: inactive | Effect on NE levels, plasma ([4]; oral 20 mg/kg): No effect | Effect on NE levels, lumbar spinal cord ([4]; single oral dose 20 mg/kg, two hours after dosing): not statistically significant | Increase of endogenous NE levels, parieto-occipital cortex ([4]; single oral dose 20 mg/kg, two hours after dosing, versus vehicle): 68.2% ± 14.1% | Increase of NE levels, cerebral cortex [4, 8]: 63.1% ±4.2% | Increase of NE levels, lumbar spinal cord [4, 8]: 51.3% ± 6.7% | ED100 (calculated), complete reversion of CFA-induced hyperalgesia [5]: 22.3 mg/kg | Reversal of acidic saline induced allodynia ([6]; 20 and 60 mg/kg oral): completely reversed | Mechanical threshold (grams) ± SEM, left paw (SX) ([6]; 6 mg/kg): 27.9 ± 1.1 grams | Mechanical threshold (grams) ± SEM, right paw (DX) ([6]; 6 mg/kg): 28.3 ± 1.9 grams | Mechanical threshold (grams) ± SEM, left paw (SX) ([6]; 20 mg/kg): 37.1 ± 0.8 grams | Mechanical threshold (grams) ± SEM, right paw (DX) ([6]; 20 mg/kg): 38.4 ± 1.7 grams | Mechanical threshold (grams) ± SEM, left paw (SX) ([6]; 60 mg/kg): 39.2 ± 1.6 grams | Mechanical threshold (grams) ± SEM, right paw (DX) ([6]; 60 mg/kg): 37.4 ± 2.1 grams | Locomotor activity levels in open field test [7]: no statistical differences | Cardiovascular effects (conscious dog): slight hypertensive effects associated with tachycardia | IC50 (MAO-A): 358 ± 12 nM | inhibition at 10 µM (MAO-A; read-out: 10 μM CR4056 (% effect), inhibition of specific binding, 10 μM, [3H]Ro 41-1049, cerebral cortex/rat): > 90%
